Experimental data taken from US20250186563A1, “UNIT DOSE FORMULATION OF ANTIDOTES FOR FACTOR XA INHIBITORS AND METHODS OF USING THE SAME” (Alexion Pharmaceuticals, Inc., priority 2009, published 2025).

Key:
[1] = system: enoxaparin-induced anticoagulation; assay: Enoxaparin-induced anticoagulation and its reversal in rats; assay type: in vivo
[2] = system: blood loss due to enoxaparin; set-up: species or system Sprague-Dawley rats; conditions: in vivo
[3] = system: clot formation in human platelet poor plasma; assay: Clotting prolongation assay, 96-well plate format (OD405 turbidity); assay type: biochemical; conditions: 1 U/ml enoxaparin; aPTT reagent
[4] = cited from earlier work
[5] = system: PT of pooled human plasma; assay: Prothrombin time (PT) human plasma clotting assay; assay type: biochemical
[6] = system: fXa (bovine fXa); assay: Plasma anti-fXa activity assay (modified Coamatic LMWH kit); assay type: in vivo; set-up: dose or concentration left out as unconfirmed; conditions: fondaparinux
[7] = in vivo; cited from earlier work
[8] = system: PT of rhesus monkey plasma; assay: Prothrombin time in rhesus monkey plasma; assay type: biochemical, rhesus monkeys; conditions: 250 nM rivaroxaban; baseline 17.5±1.6 sec
[9] = Sustained reversal of betrixaban-induced anticoagulation in rats; assay type: in vivo; conditions: rat, plasma, intravenous
[10] = In vivo mouse model, PK-PD of betrixaban with antidote; set-up: species or system C57Bl/6 mice; conditions: male, C57Bl/6, mouse, plasma, oral, Betrixaban (ng/mL), […] after 15 mg/kg betrixaban PO, 5 min after antidote injection
[11] = system: thrombin generation; assay: Thrombin generation assay in platelet poor plasma; assay type: biochemical, human; conditions: betrixaban 250 nM; in presence of rfVIIa (50-200 nM) and tissue factor; PPP
[12] = system: aPTT of pooled human plasma; assay: aPTT human plasma clotting assay (MLA Electra 800 coagulation timer); assay type: biochemical
[13] = system: blood loss due to fondaparinux; assay: Rat tail transection blood loss model, fondaparinux; assay type: in vivo, Sprague-Dawley rats; conditions: fondaparinux 25 mg/kg IV bolus, protamine 0.9 mg IV bolus
[14] = 1 mg/kg/hr, Betrixaban alone (uM), plasma concentration, betrixaban 1.0 mg/kg/hr IV for 30 min, no antidote
[15] = Betrixaban + antidote (uM), betrixaban plasma concentration, betrixaban infusion then r-Antidote 5 mg bolus + 5 mg/hr

## enoxaparin
[1]; enoxaparin 1 mg/kg IV bolus
  peak anticoagulation in rat plasma (Coatest LMW heparin assay): 1 anti fXa U/ml
[1]; enoxaparin 3 mg/kg IV bolus
  peak anticoagulation in rat plasma (Coatest LMW heparin assay): 4 anti fXa U/ml
[1]; rats, enoxaparin 1, 3 and 6 mg/kg IV bolus
  whole blood INR: dose proportional extensions
[2]
  maximum blood loss (plateau), of normal rat blood volume: approximately 5%
[3]
  extension of clotting time compared to control plasma: greater than 5 fold
[4]; human, in vivo, sc, 1 mg/kg
  peak anti fXa activity: 1.1 U/ml
[4]; human, in vivo, sc
  Mean absolute bioavailability: 92%
[4]; human, in vivo
  anti-fXa level corresponding to prescribed dose: approximately 1 U/mL

## COc1ccc(-n2nc(C(N)=O)c3c2C(=O)N(c2ccc(N4CCCCC4=O)cc2)CC3)cc1 [apixaban]
[5]; 1 μM apixaban
  PT: 16.4 s

## CO[C@H]1O[C@H](COS(=O)(=O)O)[C@@H](O[C@@H]2O[C@@H](C(=O)O)[C@@H](O[C@H]3O[C@H](COS(=O)(=O)O)[C@@H](O[C@@H]4O[C@H](C(=O)O)[C@@H](O[C@H]5O[C@H](COS(=O)(=O)O)[C@@H](O)[C@H](O)[C@H]5NS(=O)(=O)O)[C@H](O)[C@H]4O)[C@H](OS(=O)(=O)O)[C@H]3NS(=O)(=O)O)[C@H](O)[C@H]2OS(=O)(=O)O)[C@H](O)[C@H]1NS(=O)(=O)O [fondaparinux]
[6]; human plasma
  anti-fXa activity expressed with enoxaparin as the standard: 0.80 U/ml enoxaparin
[6]; rat plasma
  anti-fXa activity expressed with enoxaparin as the standard: 0.66 U/ml enoxaparin

## O=C(NC[C@H]1CN(c2ccc(N3CCOCC3=O)cc2)C(=O)O1)c1ccc(Cl)s1 [rivaroxaban]
[7]
  Reported therapeutic concentration: approximately 600 nM
[8]
  PT (average±standard deviation): 32.3 ± 6.1 s
[5]; 1 μM rivaroxaban, baseline PT 14.1 sec
  PT: 23.4 s

## COc1ccc(NC(=O)c2ccc(C(=N)N(C)C)cc2)c(C(=O)Nc2ccc(Cl)cn2)c1 [betrixaban, [2-({4-[(dimethylamino)iminomethyl]phenyl}carbonylamino)-5-methoxyphenyl]-N-(5-chloro(2-pyridyl))carboxamide]
[9]; 1 mg/kg/hr, Betrixaban + antidote (uM), betrixaban plasma concentration, betrixaban 1.0 mg/kg/hr IV for 30 min, antidote group before antidote dosing
  concentration at 30 min: 0.154 µM
[9]; [14]
  concentration at 30 min: 0.169 µM
  concentration at 35 min: 0.062 µM
  concentration at 60 min: 0.045 µM
  concentration at 90 min: 0.048 µM
[9]; [15]
  concentration at 35 min: 1.57 µM
  concentration at 60 min: 1.88 µM
  concentration at 90 min: 1.19 µM
[10]; Mean, pd-Antidote treated mice
  concentration at […]: 687 ng/mL
[10]; Mean, r-Antidote treated mice
  concentration at […]: 381 ng/mL
[10]; individual animal, r-Antidote treated mice
  concentration at […]: 434 ng/mL
[11]
  inhibition of fXa by betrixaban (thrombin generation): about 75%
[12]; 300 nM Betrixaban
  aPTT: 61.8 s
[12]; 400 nM betrixaban
  aPTT: 66.3 s
  extension of aPTT: more than two folds

## protamine sulfate
[1]; rats, enoxaparin 3.0 mg/kg, r-Antidote 5 mg bolus + 5 mg/h or protamine sulfate 0.9 mg
  reversal of enoxaparin-induced anticoagulation (plasma aPTT): sustained reversal
[4]; slow intravenous infusion of protamine sulfate, enoxaparin prescribing information
  neutralization of enoxaparin activity: up to 60%
[13]; listed as Protamine
  reversal of blood loss due to fondaparinux: failed to display corrective activity
[13]; listed as protamine
  reversal of blood loss due to fondaparinux: did not reverse blood loss
